The record followed here is EP0135770A2, “Imidazobenzodiazepine derivatives, process for their preparation and medicaments containing them” (F. HOFFMANN-LA ROCHE & CO. Aktiengesellschaft, priority 1983, dated 1985).

In series [1] the test system is CF-1-Mäuse. The series is described as follows: Intravenous antimetrazol test (Intravenöser Antimetrazoltest), protection against Metrazol convulsions. In kind it is in vivo. The conditions noted are these: Mus musculus, 1 h, oral dosing, Metrazol 70 mg/kg i.v. one hour later, 50% of animals without convulsions. The procedure: Männliche CF-1-Mäuse, welche 45-54 Tage alt sind und während ungefähr 24 Stunden vom Futter ferngehalten wurden, werden in diesem Test eingesetzt. Die Testverbindung, dispergiert in 5% Akazienöl, wird 3 Mäusen oral verabreicht und zwar bei einer Dosis, die 1/10 der im TSP-Test ermittelten Lethaldosis entspricht. Eine Stunde später wird Metrazol intravenös verabreicht (70 mg/kg: konvulsive Dosis 100 mg/kg) und die Versuchstiere während 30 Sekunden beobachtet, ob ein Schutz gegenüber den Krampfanfällen eintritt. Falls die Testverbindung oral aktiv ist, werden pro Dosis 3 Versuchstiere eingesetzt. Die Dosis, bei der 50% der Versuchstiere keinerlei Krampfanfälle erleiden, wird als ED50-Wert bezeichnet.
Gemacht Messungen: Die Anzahl der Versuchstiere, welche gegen Krampfanfälle geschützt sind.
Berechnun^qen: Falls die Prüfsubstanz aktiv ist und 3 Mäuse pro Dosis eingesetzt werden, wird der approximative ED -Wert nach der Methode von Miller und Tainter (Proc. Soc. Exp. Biol. med. 57:261 (1944)) berechnet. Falls 6 oder mehr Mäuse pro Dosis eingesetzt werden, wird der ED50--Wert sowie der 95%ige Vertrauensbereich mit Hilfe eines Computerprogramms berechnet, welches auf der Methode von D.J. Finney (Probit Analysis, Cambridge University Press. Cambridge, England, 1971) beruht.
Dieser Test eignet sich zur Evaluation von Antikonvulsiva und ist für eine Aussage bezüglich der anxiolytischen Wirkung relevant.

Series [2] relates to CF-1-Mäuse. The series is described as follows: Rotating rod test (Rotierstabtest), mice observed 30 min after dosing. In kind it is in vivo. From the text:
Dieser Test ist eine Modifikation der von N.W. Dunham und T.S. Miya in J.A. Ph. A. Sci. Ed. 46, 208 (1957) beschriebenen Methode. CF-1-Mäuse, welche aufgrund ihrer Fähigkeit ausgewählt worden sind, sich während 2 Minuten auf einem Rotierstab von 30 mm Durchmesser und 16 Umdrehungen pro Minute halten zu können, werden verwendet. Gruppen von je 8 Mäusen werden 30 Minuten nach Verabreichung der Testverbindung auf den Rotierstab verbracht und während 2 Minuten beobachtet. Diejenigen Mäuse, die sich nicht während der vollen 2 Minuten auf dem Rotierstab halten können, werden als durch die Testverbindung beeinflusst qualifiziert. Die Anzahl derjenigen Mäuse, die sich auf dem Rotierstab nicht halten können, wird in Prozent der Gesamtanzahl Mäuse in jeder Gruppe bei den verschiedenen Dosen angegeben. Diese Prozentwerte werden gegen die Dosis auf logarithmischem Papier aufgezeichnet, und der ED5o-Wert wird nach der Methode von L.C. Miller und M.L. Tainter in Proc. Soc. Exp. Biol. Med. 57, 26 (1944) ermittelt.
Der Zweck des vorliegenden Tests ist die Ueberprüfung von chemischen Verbindungen im Hinblick auf ihre Wirkung auf den Muskeltonus und/oder die muskuläre Koordination. speziell diejenige von Muskelrelaxantien, Sedativa oder Stimulantien.

Where [3] appears, read: Mus musculus, po, 0.5 h, compounds of the invention, mice unable to stay 2 min on the rotating rod, 30 min after administration, read-out: ED50.
[4] abbreviates: Mus musculus, po, 0.5 h, standard compounds, mice unable to stay 2 min on the rotating rod, 30 min after administration, read-out: ED50.

On to `NC(=O)c1ncn2c1CN=C(c1ccccc1Cl)c1ccccc1-2` [Beispiel 27, 6-(2-Chlorphenyl)-4H-imidazo[1,5-a][1,4]benzodiazepin-3-carboxamid], for which the ED50 is 7.4 mg/kg in the series with CF-1-Mäuse [1] (compounds of the invention) and above 200 mg/kg in the series with CF-1-Mäuse [2] (setting [3]).

For the compound `NC(=O)c1ncn2c1CN=C(c1ccccc1Cl)c1ccc(Cl)cc1-2` [Beispiel 31, 9-Chlor-6-(2-chlorphenyl)-4H-imidazo[1,5-a][1,4]benzodiazepin-3-carboxamid], the ED50 was 0.97 mg/kg in the series on CF-1-Mäuse [1] (compounds of the invention) and above 200 mg/kg in the series on CF-1-Mäuse [2] (setting [3]).

Turning to `Cc1nc(C(N)=O)c2n1-c1ccccc1C(c1ccccc1Cl)=NC2` [Beispiel 63, 6-(2-Chlorphenyl)-1-methyl-4H-imidazo[1,5-a][1,4]benzodiazepin-3-carboxamid], the ED50 with CF-1-Mäuse [1] (compounds of the invention) is 5.1 mg/kg; in the series with CF-1-Mäuse [2] (setting [3]) it was above 200 mg/kg.

`CC(=O)NC(=O)c1ncn2c1CN=C(c1ccccc1Cl)c1ccccc1-2` [Beispiel 68, N-Acetyl-6-(2-chlorphenyl)-4H-imidazo[1,5-a][1,4]benzodiazepin-3-carboxamid] displayed an ED50 in the series on CF-1-Mäuse [1] (compounds of the invention) of 1.3 mg/kg.

In the case of `NC(=O)c1ncn2c1C(O)N=C(c1ccccc1Cl)c1ccccc1-2` (centres unmarked) [Beispiel 72, 6-(2-Chlorphenyl)-4-hydroxy-4H-imidazo[1,5-a][1,4]benzodiazepin-3-carboxamid], the ED50 was 0.86 mg/kg in the series on CF-1-Mäuse [1] (compounds of the invention) and above 200 mg/kg in the series on CF-1-Mäuse [2] (setting [3]).

Turning to `CNC1=Nc2ccc(Cl)cc2C(c2ccccc2)=[N+]([O-])C1` [Chlordiazepoxyd, reference compound], the figures for the ED50 in the series with CF-1-Mäuse [1] (standard compounds) and in the series on CF-1-Mäuse [2] (setting [4]) were 3.9 mg/kg and 33.5 mg/kg, respectively.

Regarding `CN(C)CCCN1c2ccccc2Sc2ccc(Cl)cc21` [Chlorpromazin, reference compound], in the series on CF-1-Mäuse [2] (setting [4]), the ED50 worked out at 10 mg/kg.

Consider `CN1C(=O)CN=C(c2ccccc2)c2cc(Cl)ccc21` [Diazepam, reference compound], for which the ED50 in the series with CF-1-Mäuse [1] (standard compounds) was 1 mg/kg; with CF-1-Mäuse [2] (Mus musculus, po, 0.5 h), 7.4 mg/kg.

For `COc1ccc2c(c1)N(C[C@H](C)CN(C)C)c1ccccc1S2` [Methotrimeprazin, reference compound], the ED50 with CF-1-Mäuse [2] (setting [4]) was found to be 3.8 mg/kg.

In turn, `CCC1(c2ccccc2)C(=O)NC(=O)NC1=O` [Natriumphenobarbital, reference compound] gave an ED50 in the series on CF-1-Mäuse [1] (standard compounds) of 19 mg/kg.

In turn, “N-Acetyl-6-(2-chlorphenyl)-4H-imidazo-[1,5-a][1,4]benzodiazepin-3-carboxamid-acetylester” yielded an ED50 with CF-1-Mäuse [2] (compounds of the invention, mice unable to stay 2 min on the rotating rod, 30 min after administration) above 200 mg/kg p.o.
